Test results as given in publication PMC12266748, “A Xanthine Derivative With Novel Heat Shock Protein 90‐Alpha Inhibitory and Senolytic Properties” (Aging Cell, 2025).
Like-named read-outs stand apart in the source and are kept apart here.

System: MCF7 cells
Assay: Dose-response curves on proliferating and Tamoxifen-induced senescent MCF7 (Incucyte)
Type: cell-based, Homo sapiens
Description: IMR90 and WI38 lung fibroblasts were purchased from ECACC‐Merck. Human bone marrow (BM)‐derived mesenchymal stromal cells (MSCs) were purchased from Lonza. Human umbilical vein endothelial cells (HUVECs) are primary cells obtained from a pool of donors purchased from Clonetics (Lonza). Murine ear fibroblasts (MearFs) were obtained from C57BL/6J mice maintained in the INRCA “Specific Pathogen Free” (SPF) animal facility. MCF7 breast cancer cells were purchased from ATCC. For dose–response curves, IMR90 and WI38 were induced to senescence through replicative passages; MSCs, HUVECs, and MearFs senescence was induced with Doxorubicin; MCF7 senescence was induced with 4‐Hydroxytamoxifen (Lee et al. [2014]). The EC50 was calculated using GraphPad Prism 10 software. All treatment specifications are reported in the extended section.
MCF7 cell line (ATCC; HTB-22, Homo sapiens, breast cancer) was purchased from ATCC; cells were grown in MEM medium (Corning, New York, USA, #15-010-CVR) supplemented with 10% FBS (Gibco, Invitrogen, Carlsbad, CA, USA, #10270106), 1% glutamine (Corning #25005-CI), 1% penicillin and streptomycin (Corning #30002-CI). Cells were incubated at 37 °C with 5% CO2. Senescent status induction: MCF7 were plated 24 h before the treatment with 4-Hydroxytamoxifen (TAM) 10 μM to induce the senescence described by (Lee et al. 2014). Control cultures were treated with equal volumes of 75% ethanol as the vehicle. The treatment with TAM lasts 96 h, after which the cells have been washed and treated with the senolytic drugs K5 10 µM for another 96 h. The treatment with the senolytic compounds has been renewed at 48 h. Cell mortality and vitality curves after treatment with K5 (10 μM, orange) or Vehicle (DMSO, grey) were monitored using the Incucyte live-cell Analysis system (Sartorius, Goettingen, Germany). The estimated Senolytic index (SI) was calculated as the ratio between the EC50 in proliferating cells and the EC50 in senescent cells, extrapolated using GraphPad Prism 10 software.

**Q.** `Cc1ccccc1-n1c(=O)n(Cc2ccccc2)c(=O)c2[nH]cnc21` [Compound K5, 1-benzyl-3-(2-methylphenyl)-7H-purine-2,6-dione] was tested. Which EC50 (Homo sapiens, MCF7, 96 h, MCF7, K5 96 h, read-out: EC50 proliferating cells) did it give?
**A.** The EC50 was 167 µM.

**Q.** And the EC50 (Homo sapiens, MCF7, 96 h, MCF7, TAM 10 μM 96 h, then K5 96 h, read-out: EC50 senescent cells)?
**A.** The EC50 was 24.4 µM.

**Q.** And the “Senolytic evidence (no, partly/yes)” value (MCF7, 4-hydroxy-tamoxifen)?
**A.** The value was “Yes”.

**Q.** What about the EC50 (MCF7, K5 96 h, read-out: EC50 proliferating cells) of the same compound?
**A.** Its EC50 is 167 µM.

**Q.** What about the EC50 (MCF7, TAM 10 μM 96 h, then K5 96 h, read-out: EC50 senescent cells) of the same compound?
**A.** Its EC50 is 24 µM.

**Q.** What about the “Senolytic index (estimated)” value (MCF7, SI = EC50 in proliferating cells/EC50 senescent cells) of the same compound?
**A.** The value was 7.
